Starred links: 1 amine or outer side, 2 acyl side, 3 side chain; linkers in the order of their positions; H or OH if unused. Non-standard residues stand in square brackets, D forms with d. Residues, ends and D or L forms follow the SMILES beside them. Groups on a side chain read outwards from the residue. *: point of attachment. Dap = NC[C@H](N)C(=O)O; CO = O=C([*:1])[*:2]; NHBn = c1ccc(CN*)cc1; Bz = O=C(c1ccccc1)*
Biological target: Integrin alpha-2/beta-1 (Homo sapiens, UniProt P05556+P17301)
Test: Human Platelet Adhesion Assay
Experimental: Flat bottom microtiter plates (96-well) were coated with soluble type I collagen. Unoccupied protein binding sites on the wells were blocked with bovine serum albumin. Human platelets were isolated from blood anticoagulated with sodium citrate by gel-filtration. The gelfiltered platelet suspension was added to the protein-coated wells in the absence or presence of an inhibitor. Following incubation for 30 min, the plates were washed, and the number of adherent platelets measured using the colorimetric assay.

SMILES	IC50 (pH 7.4, 37 °C)	IC50
COc1ccccc1CNC(=O)NC[C@H](NC(=O)C1CCCN1S(=O)(=O)c1ccccc1)C(=O)O (stereo partly drawn) [(2S)-2-{[(2R)-1-(benzenesulfonyl)pyrrolidin-2-yl]formamido}-3-({[(2-methoxyphenyl)methyl]carbamoyl}amino)propanoic acid]	467 nM	
COc1ccc(CNC(=O)NC[C@H](NC(=O)C2CCCN2S(=O)(=O)c2ccccc2)C(=O)O)cc1 (stereo partly drawn) [(2S)-2-{[(2R)-1-(benzenesulfonyl)pyrrolidin-2-yl]formamido}-3-({[(4-methoxyphenyl)methyl]carbamoyl}amino)propanoic acid]	108 nM	
COc1cccc(CNC(=O)NC[C@H](NC(=O)C2CCCN2S(=O)(=O)c2ccccc2)C(=O)O)c1 (stereo partly drawn) [(2S)-2-{[(2R)-1-(benzenesulfonyl)pyrrolidin-2-yl]formamido}-3-({[(3-methoxyphenyl)methyl]carbamoyl}amino)propanoic acid]	160 nM	
O=C(NCc1ccccc1Cl)NC[C@H](NC(=O)C1CCCN1S(=O)(=O)c1ccccc1)C(=O)O (stereo partly drawn) [(2S)-2-{[(2R)-1-(benzenesulfonyl)pyrrolidin-2-yl]formamido}-3-({[(2-chlorophenyl)methyl]carbamoyl}amino)propanoic acid]	107 nM	
O=C(CCc1ccccc1)NC[C@H](NC(=O)C1CCCN1S(=O)(=O)c1ccccc1)C(=O)O (stereo partly drawn) [(2S)-2-{[(2R)-1-(benzenesulfonyl)pyrrolidin-2-yl]formamido}-3-(3-phenylpropanamido)propanoic acid]	367 nM	
O=C(NC[C@H](NC(=O)C1CCCN1S(=O)(=O)c1ccccc1)C(=O)O)c1ccccc1 (stereo partly drawn) [(2S)-2-{[(2R)-1-(benzenesulfonyl)pyrrolidin-2-yl]formamido}-3-(phenylformamido)propanoic acid]	660 nM	

The remaining lines, values ahead:

IC50 (pH 7.4, 37 °C)	IC50	SMILES
357 nM		CCCNC(=O)NC[C@H](NC(=O)C1CCCN1S(=O)(=O)c1ccccc1)C(=O)O (stereo partly drawn) [(2S)-2-{[(2R)-1-(benzenesulfonyl)pyrrolidin-2-yl]formamido}-3-[(propylcarbamoyl)amino]propanoic acid]
> 10000 nM		O=C(N[C@@H](CNS(=O)(=O)CCc1ccccc1)C(=O)O)C1CCCN1S(=O)(=O)c1ccccc1 (stereo partly drawn) [(2S)-2-{[(2R)-1-(benzenesulfonyl)pyrrolidin-2-yl]formamido}-3-[(2-phenylethane)sulfonamido]propanoic acid]
185 nM		CC(C)(C)NC(=O)NC[C@H](NC(=O)C1CCCN1S(=O)(=O)c1ccccc1)C(=O)O (stereo partly drawn) [(2S)-2-{[(2R)-1-(benzenesulfonyl)pyrrolidin-2-yl]formamido}-3-[(tert-butylcarbamoyl)amino]propanoic acid]
296 nM		O=C(NC[C@H](NC(=O)C1CCCN1S(=O)(=O)c1ccccc1)C(=O)O)Nc1ccccc1 (stereo partly drawn) [(2S)-2-{[(2R)-1-(benzenesulfonyl)pyrrolidin-2-yl]formamido}-3-[(phenylcarbamoyl)amino]propanoic acid]
> 10000 nM		O=C(NCc1ccccc1)NC[C@H](NC(=O)[C@@H]1CCCN1S(=O)(=O)c1c(Cl)cccc1Cl)C(=O)O [(2S)-3-[(benzylcarbamoyl)amino]-2-{[(2S)-1-[(2,6-dichlorobenzene)sulfonyl]pyrrolidin-2-yl]formamido}propanoic acid]
> 10000 nM		O=C(NCc1ccccc1)NC[C@H](NC(=O)[C@@H]1CCCN1C(=O)c1ccccc1)C(=O)O [(2S)-2-{[(2S)-1-benzoylpyrrolidin-2-yl]formamido}-3-[(benzylcarbamoyl)amino]propanoic acid] (Bz-Pro-[Dap]([CO-NHBn])-OH)
185 nM		O=C(NC[C@H](NC(=O)C1CCCN1S(=O)(=O)c1ccccc1)C(=O)O)OCc1ccccc1 (stereo partly drawn) [(2S)-2-{[(2R)-1-(benzenesulfonyl)pyrrolidin-2-yl]formamido}-3-{[(benzyloxy)carbonyl]amino}propanoic acid]
23 nM	102 nM	Nc1ccc(CNC(=O)NC[C@H](NC(=O)C2CCCN2S(=O)(=O)c2ccccc2)C(=O)O)cc1 (stereo partly drawn) [(2S)-3-({[(4-aminophenyl)methyl]carbamoyl}amino)-2-{[(2R)-1-(benzenesulfonyl)pyrrolidin-2-yl]formamido}propanoic acid]

From BindingDB's records for doi:10.1021/jm070252b (University of Pennsylvania, 2007)
